Assays:
[1] = target: T1, Recombinant human JAK1 (Homo sapiens, UniProt P23458); test: In-vitro activity test of JAK1 kinase (LANCE Ultra); assay type: biochemical
T1 construct: purchased Life technology
Experimental: (§1) Recombinant human JAK1, JAK2, and JAK3 […] were purchased from Life technology. LANCE Ultra ULight™-JAK-1 (Tyr1023) peptide and LANCE Eu-W1024 Anti-phosphotyrosine (PT66) both were purchased from PerkinElmer. The plates were read using a multiplex enzyme reader Envision (PerkinElmer).
(§2) The test compounds were subjected to 3-fold concentration gradient dilution to afford 11 final concentrations ranging from 10 uM to 0.17 nM; two wells were formed for each concentration; and the content of DMSO in the detection reaction was 1%.
(§3) 2 nM of JAK1 protein kinase, 50 nM of LANCE Ultra ULight™-JAK-1 (Tyr1023) peptide, 38 uM of ATP, 50 mM of HEPES (pH 7.5), 10 mM of MgCl2, 1 mM of EGTA, 2 mM of DTT, and 0.01% of BRIJ-35 were included. The assay plate was a White Proxiplate 384-Plus plate (PerkinElmer). The reaction was performed at room temperature for 90 minutes; and the reaction system was 10 ul.
(§4) 10 ul of the detection reagent was added to a reaction plate, wherein the final concentration of LANCE Eu-W1024 Anti-phosphotyrosine (PT66) was 2 nM, and the final concentration of EDTA was 10 mM. The reagents were incubated for 60 minutes at room temperature; and the plate was read with Envision instrument.
The reading was converted to an inhibition rate by the following formula: […]. IC50 data were measured by 4-parameter curve fitting (Model 205 in XLFIT5, iDBS). Seen Table 9 for details.

[2] = target: T2, Recombinant human JAK2 (Homo sapiens, UniProt O60674); test: In-vitro activity test of JAK2 kinase (LANCE Ultra); assay type: biochemical
T2 construct: purchased Life technology
Experimental: as §1, §2
as §3, with “0.02 nM” for “2 nM”, “of JAK2” for “of JAK1”, “peptide, 12” for “peptide, 38”, “for 60” for “for 90”
as §4
The reading was converted to an inhibition rate by the following formula: (%)=(Min−Ratio)/(Max−Min)*100%. IC50 data were measured by 4-parameter curve fitting (Model 205 in XLFIT5, iDBS). […]

[3] = Solubility tests of crystal form A in different solvents (manual stepwise dilution); assay type: physicochemical; conditions: for solubility: thermodynamic from solid, atmospheric temperature
Experimental: These solubility tests were carried out by manually stepwise dilution and simultaneous observation of dissolution at atmospheric temperature.

[4] = Stability tests of crystal form A in different solvents (40° C., 2 days, XRPD); assay type: physicochemical; conditions: for Results (crystal form of the solid by XRPD): 40° C., 2 days; for Appearance (2 days): stirred at 40° C. for 2 days
Experimental: The solids in all samples were collected and dried overnight in a vacuum drying oven (25° C.).

[5] = Technical effect statement on properties of the crystal forms (no method given); assay type: physicochemical
[6] = Solid stability tests of crystal form E under high temperature, high humidity and strong light (XRPD); assay type: physicochemical
Text: The vial in which the samples were placed at high temperature and high humidity was sealed with an aluminum foil, and small holes were formed in the aluminum foil to ensure that the samples were sufficiently contacted with atmospheric air; and the sample placed at strong light radiation was sealed with a threaded cap. The samples placed under different conditions were sampled and tested by XRPD on day 5 and day 10. The test results were compared with the initial test results on day 0.

T1 sequence (P23458 whole entry): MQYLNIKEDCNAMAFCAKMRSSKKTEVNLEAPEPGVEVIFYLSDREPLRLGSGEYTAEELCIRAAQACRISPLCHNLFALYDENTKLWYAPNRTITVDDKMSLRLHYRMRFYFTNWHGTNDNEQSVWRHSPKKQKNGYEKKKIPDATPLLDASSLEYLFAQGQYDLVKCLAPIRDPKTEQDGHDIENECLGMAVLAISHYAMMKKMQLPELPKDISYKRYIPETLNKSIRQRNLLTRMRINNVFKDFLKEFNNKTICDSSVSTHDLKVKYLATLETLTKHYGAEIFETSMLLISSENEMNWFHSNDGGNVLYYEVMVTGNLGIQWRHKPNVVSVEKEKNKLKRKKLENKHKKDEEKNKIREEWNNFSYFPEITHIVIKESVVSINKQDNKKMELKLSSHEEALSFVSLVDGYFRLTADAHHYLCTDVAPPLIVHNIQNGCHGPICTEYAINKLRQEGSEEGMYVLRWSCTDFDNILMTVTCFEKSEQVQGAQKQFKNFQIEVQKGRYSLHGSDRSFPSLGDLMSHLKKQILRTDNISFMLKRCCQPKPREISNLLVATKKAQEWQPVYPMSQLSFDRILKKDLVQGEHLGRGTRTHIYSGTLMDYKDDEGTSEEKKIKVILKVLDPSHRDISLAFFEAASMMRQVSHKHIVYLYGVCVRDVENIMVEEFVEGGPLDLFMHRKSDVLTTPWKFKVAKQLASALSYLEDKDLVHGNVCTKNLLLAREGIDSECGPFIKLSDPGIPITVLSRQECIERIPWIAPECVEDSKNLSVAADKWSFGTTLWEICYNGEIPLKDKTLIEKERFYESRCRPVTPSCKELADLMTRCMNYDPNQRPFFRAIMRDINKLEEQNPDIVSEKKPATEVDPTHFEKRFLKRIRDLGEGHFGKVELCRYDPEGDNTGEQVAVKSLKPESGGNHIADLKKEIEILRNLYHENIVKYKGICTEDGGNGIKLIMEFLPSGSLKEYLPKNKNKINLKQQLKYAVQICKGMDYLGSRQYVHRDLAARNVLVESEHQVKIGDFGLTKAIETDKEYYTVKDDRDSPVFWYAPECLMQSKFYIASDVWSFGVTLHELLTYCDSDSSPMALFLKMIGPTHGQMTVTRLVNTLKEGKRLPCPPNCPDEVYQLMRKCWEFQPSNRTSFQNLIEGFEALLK
T2 sequence (O60674 whole entry): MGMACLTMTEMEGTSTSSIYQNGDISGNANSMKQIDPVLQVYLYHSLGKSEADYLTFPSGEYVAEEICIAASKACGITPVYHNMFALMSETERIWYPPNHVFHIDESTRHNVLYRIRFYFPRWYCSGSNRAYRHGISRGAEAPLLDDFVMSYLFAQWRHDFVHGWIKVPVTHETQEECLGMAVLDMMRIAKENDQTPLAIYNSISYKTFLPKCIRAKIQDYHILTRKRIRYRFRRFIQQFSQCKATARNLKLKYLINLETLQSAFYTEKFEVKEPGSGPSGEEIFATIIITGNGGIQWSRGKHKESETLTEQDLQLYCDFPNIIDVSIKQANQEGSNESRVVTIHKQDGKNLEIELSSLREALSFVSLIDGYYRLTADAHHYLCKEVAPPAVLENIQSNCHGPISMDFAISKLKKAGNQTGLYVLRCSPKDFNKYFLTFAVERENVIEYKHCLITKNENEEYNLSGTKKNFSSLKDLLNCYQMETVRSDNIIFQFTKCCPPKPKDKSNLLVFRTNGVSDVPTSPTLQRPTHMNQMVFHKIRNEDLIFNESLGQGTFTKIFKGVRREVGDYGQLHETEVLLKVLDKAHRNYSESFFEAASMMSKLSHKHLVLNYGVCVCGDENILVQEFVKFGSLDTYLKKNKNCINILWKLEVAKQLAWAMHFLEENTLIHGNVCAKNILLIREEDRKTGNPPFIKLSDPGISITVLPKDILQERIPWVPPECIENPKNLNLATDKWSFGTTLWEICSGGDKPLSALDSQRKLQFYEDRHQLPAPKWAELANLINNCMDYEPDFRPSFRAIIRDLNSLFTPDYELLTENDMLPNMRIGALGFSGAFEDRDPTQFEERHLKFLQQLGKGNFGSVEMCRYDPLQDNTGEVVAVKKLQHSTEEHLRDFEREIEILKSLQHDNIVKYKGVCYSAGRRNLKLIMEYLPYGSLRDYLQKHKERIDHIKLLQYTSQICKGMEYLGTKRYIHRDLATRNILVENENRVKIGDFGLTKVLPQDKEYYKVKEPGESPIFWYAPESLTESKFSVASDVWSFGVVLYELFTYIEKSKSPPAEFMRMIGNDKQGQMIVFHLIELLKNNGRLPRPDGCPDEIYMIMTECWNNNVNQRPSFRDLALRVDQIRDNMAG

CN(c1ncnc2[nH]ccc12)[C@@H]1CCn2cc(C#N)nc2C1 (single isomer, unassigned) [Compound 1, 7-[methyl-[7-hydropyrrolo[2,3-d]pyrimidin-4-yl]amino]-5,6,7,8-tetrahydroimidazo[1,2-a]pyridin-2-nitrile]
inhibitory activity against JAK1 (in words) [1]: strong inhibitory activity | selective inhibition (JAK1 versus JAK2, in words) [1]: better selective inhibition for JAK | IC50 ([1]; 38 uM ATP, 90 minutes, room temperature): ≤ 10 nM | inhibitory activity against JAK2 (in words) [2]: relatively weak inhibitory activity | IC50 ([2]; 12 uM ATP, 60 minutes, room temperature): 10 to 100 nM

CN(c1ncnc2[nH]ccc12)[C@@H]1CCn2cc(C#N)nc2C1 [Crystal Form A of Compound 1]
Solubility conclusion ([3]; 1,4-dioxane): Slightly soluble/very | Solubility conclusion ([3]; 2-methyltetrahydrofuran): Slightly soluble/very | Solubility conclusion ([3]; Acetone): Slightly soluble/very | Solubility conclusion ([3]; Acetone-water (1:2)): Slightly soluble/very | Solubility conclusion ([3]; Acetonitrile): Slightly soluble/very | Solubility conclusion ([3]; Acetonitrile-water (1:1)): Slightly soluble/very | Solubility conclusion ([3]; Cyclohexane): Slightly soluble/very | Solubility conclusion ([3]; Ethanol): Slightly soluble/very | Solubility conclusion ([3]; Ethanol-water (1:1)): Slightly soluble/very | Solubility conclusion ([3]; Ethanol-water (3:1)): Slightly soluble/very | Solubility conclusion ([3]; Ethyl acetate): Slightly soluble/very | Solubility conclusion ([3]; Heptane): Slightly soluble/very | Solubility conclusion ([3]; Isopropanol): Slightly soluble/very | Solubility conclusion ([3]; Isopropyl acetate): Slightly soluble/very | Solubility conclusion ([3]; Isopropyl alcohol-water (1:1)): Slightly soluble/very | Solubility conclusion ([3]; Methanol): Slightly soluble/very | Solubility conclusion ([3]; Methanol-water (1:1)): Slightly soluble/very | Solubility conclusion ([3]; Methanol-water (3:1)): Slightly soluble/very | Solubility conclusion ([3]; Methyl ethyl ketone): Slightly soluble/very | Solubility conclusion ([3]; Methyl isobutyl ketone): Slightly soluble/very | Solubility conclusion ([3]; Methyl tert-butyl ether): Slightly soluble/very | Solubility conclusion ([3]; N-butanol): Slightly soluble/very | Solubility conclusion ([3]; Tetrahydrofuran): Slightly soluble/very | Solubility conclusion ([3]; Toluene): Slightly soluble/very | Solubility conclusion ([3]; Water): Slightly soluble/very | solubility ([3]; aqueous with cosolvent or surfactant or cyclodextrin, Acetone-water (1:2)): < 2000 µg/mL | solubility ([3]; aqueous with cosolvent or surfactant or cyclodextrin, Acetonitrile-water (1:1)): < 2000 µg/mL | solubility ([3]; aqueous with cosolvent or surfactant or cyclodextrin, Ethanol-water (1:1)): < 2000 µg/mL | solubility ([3]; aqueous with cosolvent or surfactant or cyclodextrin, Ethanol-water (3:1)): < 2000 µg/mL | solubility ([3]; aqueous with cosolvent or surfactant or cyclodextrin, Isopropyl alcohol-water (1:1)): < 2000 µg/mL | solubility ([3]; aqueous with cosolvent or surfactant or cyclodextrin, Methanol-water (1:1)): < 2000 µg/mL | solubility ([3]; aqueous with cosolvent or surfactant or cyclodextrin, Methanol-water (3:1)): < 2000 µg/mL | solubility ([3]; organic solvent or mixture, 1,4-dioxane): < 2000 µg/mL | solubility ([3]; organic solvent or mixture, 2-methyltetrahydrofuran): < 2000 µg/mL | solubility ([3]; organic solvent or mixture, Acetone): < 2000 µg/mL | solubility ([3]; organic solvent or mixture, Acetonitrile): < 2000 µg/mL | solubility ([3]; organic solvent or mixture, Cyclohexane): < 2000 µg/mL | solubility ([3]; organic solvent or mixture, Ethanol): < 2000 µg/mL | solubility ([3]; organic solvent or mixture, Ethyl acetate): < 2000 µg/mL | solubility ([3]; organic solvent or mixture, Heptane): < 2000 µg/mL | solubility ([3]; organic solvent or mixture, Isopropanol): < 2000 µg/mL | solubility ([3]; organic solvent or mixture, Isopropyl acetate): < 2000 µg/mL | solubility ([3]; organic solvent or mixture, Methanol): < 2000 µg/mL | solubility ([3]; organic solvent or mixture, Methyl ethyl ketone): < 2000 µg/mL | solubility ([3]; organic solvent or mixture, Methyl isobutyl ketone): < 2000 µg/mL | solubility ([3]; organic solvent or mixture, Methyl tert-butyl ether): < 2000 µg/mL | solubility ([3]; organic solvent or mixture, N-butanol): < 2000 µg/mL | solubility ([3]; organic solvent or mixture, Tetrahydrofuran): < 2000 µg/mL | solubility ([3]; organic solvent or mixture, Toluene): < 2000 µg/mL | solubility ([3]; Water): < 2000 µg/mL | Results (crystal form of the solid by XRPD) ([4]; Acetone-water (1:2)): Crystal form A | Appearance (2 days) ([4]; Acetone-water (1:2)): Suspension | Results (crystal form of the solid by XRPD) ([4]; Acetone): Crystal form A | Appearance (2 days) ([4]; Acetone): Suspension | Results (crystal form of the solid by XRPD) ([4]; Ethanol-water (3:1)): Crystal form A | Appearance (2 days) ([4]; Ethanol-water (3:1)): Suspension | Results (crystal form of the solid by XRPD) ([4]; Ethanol): Crystal form A | Appearance (2 days) ([4]; Ethanol): Suspension | Results (crystal form of the solid by XRPD) ([4]; Ethyl acetate): Crystal form A | Appearance (2 days) ([4]; Ethyl acetate): Suspension | Results (crystal form of the solid by XRPD) ([4]; Isopropanol): Crystal form A | Appearance (2 days) ([4]; Isopropanol): Suspension | Results (crystal form of the solid by XRPD) ([4]; Isopropyl alcohol-water (1:1)): Crystal form A | Appearance (2 days) ([4]; Isopropyl alcohol-water (1:1)): Suspension | Results (crystal form of the solid by XRPD) ([4]; Methanol-water (3:1)): Crystal form A | Appearance (2 days) ([4]; Methanol-water (3:1)): Suspension | Results (crystal form of the solid by XRPD) ([4]; Methanol): Crystal form A | Appearance (2 days) ([4]; Methanol): Suspension | Results (crystal form of the solid by XRPD) ([4]; Tetrahydrofuran): Crystal form A | Appearance (2 days) ([4]; Tetrahydrofuran): Suspension | hygroscopicity (in words) [5]: low hygroscopicity | stability (in words) [5]: stable properties | water solubility (in words) [5]: excellent water solubility

CN(c1ncnc2[nH]ccc12)[C@@H]1CCn2cc(C#N)nc2C1.Cc1ccc(S(=O)(=O)O)cc1 [Crystal Form E of Compound 2]
XRPD ([6]; High humidity (room temperature/relative humidity 92.5%, open), day 5): Crystal form E | Appearance ([6]; High humidity (room temperature/relative humidity 92.5%, open), day 5 and day 10): White powder | XRPD ([6]; High humidity (room temperature/relative humidity 92.5%, open), day 10): Crystal form E | XRPD ([6]; High temperature (60° C., open), day 5): Crystal form E | Appearance ([6]; High temperature (60° C., open), day 5 and day 10): White powder | XRPD ([6]; High temperature (60° C., open), day 10): Crystal form E | XRPD ([6]; Strong light radiation (5000 lx, close), day 5): Crystal form E | Appearance ([6]; Strong light radiation (5000 lx, close), day 5 and day 10): White powder | XRPD ([6]; Strong light radiation (5000 lx, close), day 10): Crystal form E | Appearance ([6]; day 0 (initial)): White powder | XRPD ([6]; day 0 (initial)): Crystal form E | hygroscopicity (in words) [5]: low hygroscopicity | stability (in words) [5]: stable properties | water solubility (in words) [5]: excellent water solubility

CN(c1ncnc2[nH]ccc12)[C@@H]1CCn2cc(C#N)nc2C1.O=C(O)C(F)(F)F [crystal form F of the compound 3]
hygroscopicity (in words) [5]: low hygroscopicity | stability (in words) [5]: stable properties | water solubility (in words) [5]: excellent water solubility
